Patent US7884070B2, “Linear cationic peptides having antibacterial and/or antifungal properties” (priority 2002, dated 2011)
Converted amounts (≈) assume the structure as drawn. Where a SMILES comes first, the peptide text is derived from it.

What was measured:
[1] = test system: Staphylococcus epidermidis ATCC 12228; format: cell-based
[2] = test system: Bacillus cereus ATCC 11778; format: cell-based
[3] = test system: Proteus vulgaris ATCC 13315; format: cell-based
[4] = test system: Citrobacter freundii ATCC 8090; format: cell-based
[5] = test system: Enterococcus faecium ATCC 35667; format: cell-based
[6] = test system: Enterococcus faecalis ATCC 19433; format: cell-based
[7] = test system: Escherichia coli ATCC 25922; format: cell-based
[8] = test system: Neisseria sica ATCC 9913; format: cell-based
[9] = test system: Streptococcus pyogenes ATCC 19615; format: cell-based
[10] = test system: Acinetobacter baumanii clinical strains; format: cell-based
Experimental: A volume of 3 μl of each concentration of antibiotic was deposited on the agar media: • MH: for the non-exigent strains, • MH+5% sheep blood: for the streptococci, Listeria, Bacillus and Neisseria, • HTM: for the Haemophilus. […]

[11] = In vivo toxicity: maximal tolerated dose (MTD); conditions: mouse, female OFI mice, intravenous perfusion approx. 15 minutes, 28 days after an injection
Experimental: The maximal tolerated dose (MTD) for each peptide was determined on female OFI mice at 28 days after an injection. The MTD was defined as the maximal nonlethal dose that could be injected. The peptides were administered by the intravenous route as a perfusion of approximately 15 minutes duration. The injection volume was 10 μl/g, the perfusion rate was 1.2 ml/hour and the excipient was a solution of NaCl at 0.8%.

[12] = test system: Serratia marcescens ATCC 8100; format: cell-based
[13] = test system: Acinetobacter baumanii ATCC 19606; format: cell-based
[14] = test system: Streptococcus agalactiae ATCC 13813; format: cell-based
[15] = in vitro; conditions: human, human plasma
Experimental: The stability was determined at 37° C. After 0, 0.5, 1, 2, 4 and 6 hours, 3×200 μl were collected and added to 10 μl of internal standard (peptide no. 1) at 500 μM in water, to which 800 μl of 0.1% trifluoroacetic acid (TFA) in water was added. A volume of 1 ml of this mixture was deposited on resin C2 (EC) that had previously been equilibrated with 1 ml of 0.1% TFA in water, 1 ml of 0.1% TFA in acetonitrile and 1 ml of 0.1% TFA in water. After two washings with 1 ml of 0.1% TFA in water, the elution of peptide and of its metabolites was induced by 1 ml of 0.1% TFA in methanol. This was then dried under a stream of air and taken up in 200 μl of 0.1% TFA in water. A volume of 100 μl was analyzed by HPLC on a Luna C1 8(2) column, 3 μg, 4.6×100 mm (Phenomenex) with 0.1% TFA in water as solvent A and 0.1% TFA in acetonitrile as solvent B. A gradient of 15-45% of B in 12 minutes was used for the elution with a flow rate of 1.2 ml/min; detection was performed at 214 nm.

[16] = test system: Salmonella typhimurium ATCC 14028; format: cell-based
[17] = test system: Enterobacter aerogenes clinical strains; format: cell-based
[18] = test system: Haemophilus influenzae ATCC 49247; format: cell-based
[19] = test system: Enterobacter aerogenes ATCC 13048; format: cell-based
[20] = test system: Micrococcus luteus ATCC 9341; format: cell-based
[21] = test system: Shigella sonnei ATCC 25931
Experimental: The MIC values were determined by the method of microdilution in liquid medium (NCCLS M7A5) for all of the bacterial species on 96-well polystyrene plates.
The culture medium was Mueller-Hinton broth (MHB) (pH≈7.2-7.4) with supplements according to the bacterial species studied: • MHB alone for the non-exigent species, • MHB+3% lysed horse blood for the streptococci, Listeria and Neisseria, • MHB+hemin 15 mg/l+NAD 15 mg/l+yeast extract 5 g/l for Haemophilus.
The bacterial inoculum was prepared from re-isolation performed on: • CLED agar: non-exigent strains, • blood agar+5% goat blood: streptococci, Listeria and Neisseria • chocolate agar+5% goat blood: Haemophilus, Neisseria.
The final inoculum was at ≈5·10^5 cfu/ml (colony forming units). 50 μl of bacterial inoculum was distributed per well containing an equal volume of the peptide solution diluted by half in the appropriate culture medium depending on the bacterial species (0.5 to 512 μg/ml). The cultures were incubated at 35° C. in ambient air for 16 to 20 hours (20 to 24 h for the streptococci).
Determination of the MBC values was performed after inhibition and reading of the MIC plates:
A volume of 3 μl of each concentration of antibiotic was deposited on the agar media: • MH: for the non-exigent strains, • MH+5% sheep blood: for the streptococci, Listeria, Bacillus and Neisseria, • HTM: for the Haemophilus.
The agars were incubated for 18 h at 35° C. in atmosphere: • in ambient air: for the non-exigent strains, • with 5-6% of CO2: for the streptococci, Listeria, Haemophilus and Neisseria.
The MBC is the lowest concentration of antibiotic that inhibits all bacterial growth on the transplant agar (<0. 1% of survivors).

[22] = test system: Escherichia coli ATCC 35218; format: cell-based
[23] = test system: C. neoformans Cn52D; format: cell-based, Cryptococcus neoformans
Experimental: D. Determination of the miminimal inhibitory concentration (MIC) in liquid medium for the Filamentous Fungi and Yeast
Peptide concentrations tested: from 0.2 μg/ml to 100 μg/ml.

[24] = test system: Listeria monocytogenes ATCC 19115; format: cell-based
[25] = test system: Enterococcus faecalis ATCC 29212; format: cell-based
[26] = test system: Staphylococcus aureus ATCC 25923; format: cell-based
[27] = test system: Shigella flexneri ATCC 112022
[28] = test system: Staphylococcus aureus ATCC 14154; format: cell-based
[29] = test system: Streptococcus pneumoniae ATCC 49619; format: cell-based
[30] = test system: Streptococcus pneumoniae ATCC 6303; format: cell-based
[31] = test system: Bacillus subtilis ATCC 6633; format: cell-based
[32] = test system: Pseudomonas aeruginosa ATCC 27853; format: cell-based
[33] = test system: Enterobacter cloacae ATCC 23355; format: cell-based
[34] = test system: Klebsiella pneumoniae ATCC 13883; format: cell-based

For `CC(C)C[C@H](NC(=O)[C@H](CCCCN)NC(=O)[C@H](C)NC(=O)[C@H](CC(C)C)NC(=O)[C@@H](N)CCCCN)C(=O)N[C@@H](C)C(=O)N[C@@H](CCCCN)C(=O)N[C@@H](CCCCN)C(=O)N[C@@H](CC(C)C)C(=O)N[C@@H](C)C(=O)N[C@@H](CCCCN)C(=O)N[C@@H](CC(C)C)C(=O)N[C@@H](C)C(=O)N[C@@H](CCCCN)C(=O)N[C@@H](CCCCN)C(=O)N[C@@H](Cc1c[nH]cn1)C(=O)N[C@@H](CC(C)C)C(=O)N[C@@H](CCCCN)C(=O)N[C@@H](CCCCN)C(=O)N[C@@H](Cc1c[nH]cn1)C(=O)N[C@@H](CC(C)C)C(=O)N[C@@H](CCCCN)C(=O)N[C@@H](CCCCN)C(=O)N[C@@H](Cc1c[nH]cn1)C(=O)N[C@@H](CC(C)C)C(=O)N[C@@H](CCCCN)C(=O)O` [Peptide 2] (H-KLAKLAKKLAKLAKKHLKKHLKKHLK-OH; N-terminus and C-terminus assumed), the MBC [1] was 2 µg/mL (≈ 0.657 µM), the MIC [1] was 2 µg/mL (≈ 0.657 µM) and the MBC [2] was 8 µg/mL (≈ 2.63 µM). For the same compound, the MIC [2] was 8 µg/mL (≈ 2.63 µM), the MBC [3] was 4 µg/mL (≈ 1.31 µM) and the MIC [3] was 4 µg/mL (≈ 1.31 µM). For the same compound, the MBC [4] was 8 µg/mL (≈ 2.63 µM), the MIC [4] was 8 µg/mL (≈ 2.63 µM) and the MBC [5] was 32 µg/mL (≈ 10.5 µM). It also gave an MIC [5] of 16 µg/mL (≈ 5.26 µM), an MBC [6] of 128 µg/mL (≈ 42.1 µM) and an MIC [6] of 64 µg/mL (≈ 21 µM). The MBC [7] was 2 µg/mL (≈ 0.657 µM), the MIC [7] was 2 µg/mL (≈ 0.657 µM) and the MBC [8] was 0.5 µg/mL (≈ 0.164 µM). It also gave an MIC [8] of 0.5 µg/mL (≈ 0.164 µM), an MBC [9] of 8 µg/mL (≈ 2.63 µM) and an MIC [9] of 8 µg/mL (≈ 2.63 µM). For the same compound, the MIC [10] was 2 µg/mL (≈ 0.657 µM), the MTD at 28 days [11] was 13.5 mg/kg and the MBC [12] was >512 µg/mL. The MIC [12] was >512 µg/mL, the MBC [13] was 2 µg/mL (≈ 0.657 µM) and the MIC [13] was 2 µg/mL (≈ 0.657 µM). The MBC [14] was 8 µg/mL (≈ 2.63 µM), the MIC [14] was 8 µg/mL (≈ 2.63 µM) and the metabolised at 6 h, 50 µM [15] was ≤ 41%. It also gave an MBC [16] of 4 µg/mL (≈ 1.31 µM), an MIC [16] of 4 µg/mL (≈ 1.31 µM) and an MBC [17] of 8 µg/mL (≈ 2.63 µM). The MBC [18] was 32 µg/mL (≈ 10.5 µM), the MIC [18] was 32 µg/mL (≈ 10.5 µM) and the MBC [19] was 16 µg/mL (≈ 5.26 µM). It also gave an MIC [19] of 16 µg/mL (≈ 5.26 µM), an MBC [20] of 4 µg/mL (≈ 1.31 µM) and an MIC [20] of 4 µg/mL (≈ 1.31 µM). The MBC [21] was 2 µg/mL (≈ 0.657 µM), the MIC [21] was 2 µg/mL (≈ 0.657 µM) and the MBC [22] was 2 µg/mL (≈ 0.657 µM). The MIC [22] was 2 µg/mL (≈ 0.657 µM), the MIC [23] was 1.56 µg/mL (≈ 0.512 µM) and the MBC [24] was 2 µg/mL (≈ 0.657 µM). For the same compound, the MIC [24] was 2 µg/mL (≈ 0.657 µM), the MBC [25] was 32 µg/mL (≈ 10.5 µM) and the MIC [25] was 32 µg/mL (≈ 10.5 µM). It also gave an MBC [26] of 32 µg/mL (≈ 10.5 µM), an MIC [26] of 16 µg/mL (≈ 5.26 µM) and an MBC [27] of 2 µg/mL (≈ 0.657 µM). For the same compound, the MIC [27] was 2 µg/mL (≈ 0.657 µM), the MBC [28] was 64 µg/mL (≈ 21 µM) and the MIC [28] was 32 µg/mL (≈ 10.5 µM). It also gave an MBC [29] of 256 µg/mL (≈ 84.1 µM), an MIC [29] of 16 µg/mL (≈ 5.26 µM) and an MBC [30] of 128 µg/mL (≈ 42.1 µM). For the same compound, the MIC [30] was 32 µg/mL (≈ 10.5 µM), the MBC [31] was 8 µg/mL (≈ 2.63 µM) and the MIC [31] was 8 µg/mL (≈ 2.63 µM). It also gave an MBC [32] of 8 µg/mL (≈ 2.63 µM), an MIC [32] of 8 µg/mL (≈ 2.63 µM) and an MBC [33] of 2 µg/mL (≈ 0.657 µM). The MIC [33] was 2 µg/mL (≈ 0.657 µM), the MBC [34] was 32 µg/mL (≈ 10.5 µM) and the MIC [34] was 32 µg/mL (≈ 10.5 µM).
